# Data reported in patent US20230112641A1, “METHODS OF TREATING DIARRHEA OR INFLAMMATORY CONDITIONS OF THE GUT” (ABBOTT LABORATORIES, priority 2020, published 2023).
# Molecular target: T1, human GPR109A (Homo sapiens, UniProt Q8TDS4)
# T1 construct: expressed in transfected cells
# Assay: Intracellular cAMP levels in forskolin-treated GPR109A-expressing colonic cells, measured by fluorescence (cAMP-Glo Assay)
# Assay type: cell-based
# Conditions: cAMP reduction in forskolin-treated cells; read-out: EC50 to activate the GPR109A receptors
# From the text: The activity of GI-coupled receptors like GPR109A is normally assessed by showing a reduction in cellular levels of cAMP in forskolin-treated cells. This is normally done using the commercially available kit, cAMP-Glo™ Assay. […] When a GI-coupled receptor is activated in forskolin-treated cells, cAMP levels will go up.
# T1 sequence (Q8TDS4 whole entry): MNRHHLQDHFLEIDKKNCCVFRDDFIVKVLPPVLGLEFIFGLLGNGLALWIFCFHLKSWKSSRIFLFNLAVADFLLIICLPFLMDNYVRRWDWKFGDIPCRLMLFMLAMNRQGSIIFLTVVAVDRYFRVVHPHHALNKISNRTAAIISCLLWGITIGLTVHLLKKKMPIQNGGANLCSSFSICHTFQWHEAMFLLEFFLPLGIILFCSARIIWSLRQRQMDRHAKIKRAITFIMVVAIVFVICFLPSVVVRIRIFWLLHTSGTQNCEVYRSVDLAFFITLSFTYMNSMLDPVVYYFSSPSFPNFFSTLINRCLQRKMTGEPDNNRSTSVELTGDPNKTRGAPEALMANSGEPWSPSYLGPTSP
compound,measurement,value
"CC(C)(O)CC(=O)O [HMB, beta-hydroxy-beta-methylbutyrate]",EC50,250 to 2500 µM
